As usually defined, the IC50 is the concentration that gives 50% inhibition. As a reminder, the inhibition is the share of the control response that was lost under treatment.

Consider 30 compounds from patent publication US7135466B2 (Kirin Beer Kabushiki Kaisha, priority 1999, dated 2006).

The target of the assay is T1, c-kit (Homo sapiens, UniProt P10721).
T1 construct: MO7e (human megakaryocytic leukemia cell line) which had been arrested for 20 hr; endogenous in cells; host or cells: MO7e human megakaryocytic leukemia cell line
T1 sequence (P10721 26-976): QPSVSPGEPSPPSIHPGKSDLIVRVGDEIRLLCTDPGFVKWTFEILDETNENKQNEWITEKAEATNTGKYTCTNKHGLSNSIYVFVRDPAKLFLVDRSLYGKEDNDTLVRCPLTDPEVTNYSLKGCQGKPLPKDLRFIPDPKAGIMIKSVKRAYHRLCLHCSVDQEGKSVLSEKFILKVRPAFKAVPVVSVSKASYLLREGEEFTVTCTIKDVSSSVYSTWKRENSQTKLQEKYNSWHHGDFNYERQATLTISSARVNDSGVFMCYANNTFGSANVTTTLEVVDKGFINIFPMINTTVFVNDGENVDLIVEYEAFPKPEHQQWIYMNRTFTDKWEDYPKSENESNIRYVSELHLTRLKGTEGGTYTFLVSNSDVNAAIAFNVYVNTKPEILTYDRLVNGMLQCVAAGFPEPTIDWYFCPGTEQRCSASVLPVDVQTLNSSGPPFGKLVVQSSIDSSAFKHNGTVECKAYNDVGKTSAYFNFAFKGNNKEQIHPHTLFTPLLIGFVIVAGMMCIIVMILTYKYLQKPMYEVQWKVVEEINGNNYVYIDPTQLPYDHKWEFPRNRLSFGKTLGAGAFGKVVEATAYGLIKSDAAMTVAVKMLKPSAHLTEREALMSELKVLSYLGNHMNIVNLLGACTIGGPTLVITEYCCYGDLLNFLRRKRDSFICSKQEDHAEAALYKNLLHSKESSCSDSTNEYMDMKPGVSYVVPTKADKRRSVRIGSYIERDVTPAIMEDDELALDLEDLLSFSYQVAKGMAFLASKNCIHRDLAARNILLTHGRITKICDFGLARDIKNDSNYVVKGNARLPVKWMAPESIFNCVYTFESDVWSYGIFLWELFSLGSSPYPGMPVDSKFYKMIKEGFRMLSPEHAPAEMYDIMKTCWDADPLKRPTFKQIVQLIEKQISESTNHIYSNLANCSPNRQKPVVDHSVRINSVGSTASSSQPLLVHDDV
Nature of the assay: Inhibitory activity against c-kit autophosphorylation (MO7e cells, h-SCF). The settings on record: for IC50: MO7e cells, h-SCF stimulation, read-out: c-kit IC50; for inhibition at 1 µM: Mo7e, figure in parentheses in −( ), at 1000 nM. Type of assay: cell-based. As to the method:
Inhibitory Activity Against c-kit Autophosphorylation
MO7e (human megakaryocytic leukemia cell line) which had been arrested for 20 hr was seeded into 96 well plates at an amount of 2×10^5 per well. A solution of a test compound in DMSO was added, and a reaction was then allowed to proceed for one hr. Thereafter, the cells were stimulated by 50 ng/ml of h-SCF for 5 min, followed by replacement with lysate buffer to solubilize the cells.
Next, the solubilized cell sap was transferred to a 96-well plate with an anti-phosphotyrosine antibody (PY-20) previously immobilized thereon, and a reaction was allowed to proceed. Thereafter, the cells were reacted with an anti-c-kit antibody (c-19, Santa Cruz) as a primary antibody and were labelled with GAR (anti-rabbit IgG, horseradish peroxidase, Amersham) as a secondary antibody. Color development was then carried out in a peroxidase color development kit (Sumitomo Bakelite Co., Ltd.), and the absorbance was measured at a wavelength of 450 nm.

As for `COc1cc2nccc(Oc3ccc(SCCCCOc4cccc(C)c4)cc3)c2cc1OC` [Example 844, 6,7-Dimethoxy-4-(4-{[4-(3-methylphenoxy)butyl]sulfanyl}phenoxy)quinoline], the half-inhibitory concentration (IC50) worked out at 450 nM.
In the case of `COc1cc2ncnc(Oc3ccc(SCCCOc4ccccc4F)cc3)c2cc1OC` [Example 845, 4-(4-{[3-(2-Fluorophenoxy)propyl]sulfanyl}phenoxy)-6,7-dimethoxyquinazoline], the half-maximal inhibitory concentration (IC50) was determined as 453 nM.
With `COc1cc2ncnc(Oc3ccc(SCCCOc4cccc(C)c4)cc3)c2cc1OC` [Example 846, 6,7-Dimethoxy-4-(4-{[3-(3-methylphenoxy)propyl]sulfanyl}phenoxy)quinazoline], the inhibition at 1 µM was 33%.
As for `COc1cc2ncnc(Oc3ccc(SCCCCOc4cccc(C)c4)cc3)c2cc1OC` [Example 847, 6,7-Dimethoxy-4-(4-{[4-(3-methylphenoxy)butyl]sulfanyl}phenoxy)quinazoline], the inhibition at 1 µM stood at 9%.
On to `COc1cc2ncnc(Oc3ccc(SCCCCOc4ccccc4F)cc3)c2cc1OC` [Example 848, 4-(4-{[4-(2-Fluorophenoxy)butyl]sulfanyl}phenoxy)-6,7-dimethoxyquinazoline], for which the concentration for half-maximal inhibition (IC50) is 943 nM.
On the same count and under the same terms, for `COc1cc2ncnc(Oc3ccc(SCCOc4ccccc4F)cc3)c2cc1OC` [Example 849, 4-(4-{[2-(2-Fluorophenoxy)ethyl]sulfanyl}phenoxy)-6,7-dimethoxyquinazoline] the value was 760 nM.
On the same count and under the same terms, the same measure for `COc1cc2ncnc(Oc3ccc(SCCOc4cccc(C)c4)cc3)c2cc1OC` [Example 850, 6,7-Dimethoxy-4-(4-{[2-(3-methylphenoxy)ethyl]sulfanyl}phenoxy)quinazoline]: 278 nM; for `COc1cc2nccc(Oc3ccc(NCCOc4ccc(Cl)cc4Cl)cc3)c2cc1OC` [Example 851, N-[2-(2,4-Dichlorophenoxy)ethyl]-N-{4-[(6,7-dimethoxy-4-quinolyl)oxy]phenyl}amine]: 75 nM.
Still for that read-out and setting: for `COc1cc2nccc(Oc3ccc(NCCOc4ccccc4C)cc3)c2cc1OC` [Example 852, N-{4-[(6,7-Dimethoxy-4-quinolyl)oxy]phenyl}-N-[2-(2-methylphenoxy)ethyl]amine] the value was 179 nM; for `COc1cc2nccc(Oc3ccc(NCCOc4ccccc4OC)cc3)c2cc1OC` [Example 853, N-{4-[(6,7-Dimethoxy-4-quinolyl)oxy]phenyl}-N-[2-(2-methoxyphenoxy)ethyl]amine], 102 nM; for `COc1cc2nccc(Oc3ccc(NCCOc4c(Cl)cccc4Cl)cc3)c2cc1OC` [Example 854, N-[2-(2,6-Dichlorophenoxy)ethyl]-N-{4-[(6,7-dimethoxy-4-quinolyl)oxy]phenyl}amine], 313 nM.
`COc1cc2nccc(Oc3ccc(NCCOc4c(C)cccc4C)cc3)c2cc1OC` [Example 855, N-{4-[(6,7-Dimethoxy-4-quinolyl)oxy]phenyl}-N-[2-(2,6-dimethylphenoxy)ethyl]amine]: the half-maximal inhibitory concentration (IC50) turned out to be 399 nM.
With `COc1cc2nccc(Oc3ccc(NCCOc4c(OC)cccc4OC)cc3)c2cc1OC` [Example 856, N-[2-(2,6-Dimethoxyphenoxy)ethyl]-N-{4-[(6,7-dimethoxy-4-quinolyl)oxy]phenyl}amine], the IC50 stood at 255 nM.
Take `COc1cc2nccc(Oc3ccc(NCCOc4c(F)cccc4F)cc3)c2cc1OC` [Example 857, N-[2-(2,6-Difluorophenoxy)ethyl]-N-{4-[(6,7-dimethoxy-4-quinolyl)oxy]phenyl}amine]: the IC50 was 195 nM.
As for `COc1cc2nccc(Oc3ccc(NCCOc4cc(C)cc(C)c4)cc3)c2cc1OC` [Example 858, N-{4-[(6,7-Dimethoxy-4-quinolyl)oxy]-phenyl}-N-[2-(3,5-dimethylphenoxy)ethyl]amine], the IC50 worked out at 102 nM.
For `COc1cc2nccc(Oc3ccc(NCCOc4ccc(Cl)cc4)cc3)c2cc1OC` [Example 859, N-[2-(4-Chlorophenoxy)ethyl]-N-{4-[(6,7-dimethoxy-4-quinolyl)oxy]phenyl}amine], the IC50 stood at 130 nM.
Turning to `COc1cc2nccc(Oc3ccc(NCCOc4cccc(Cl)c4)cc3)c2cc1OC` [Example 860, N-[2-(3-Chlorophenoxy)ethyl]-N-{4-[(6,7-dimethoxy-4-quinolyl)oxy]phenyl}amine], the half-inhibitory concentration (IC50) stood at 75 nM.
As for `CCc1ccccc1OCCNc1ccc(Oc2ccnc3cc(OC)c(OC)cc23)cc1` [Example 861, N-{4-[(6,7-Dimethoxy-4-quinolyl)oxy]phenyl}-N-[2-(2-ethylphenoxy)ethyl]amine], the half-maximal inhibitory concentration (IC50) worked out at 132 nM.
For the compound `COc1cc2ncnc(Oc3ccc(NCCOc4ccccc4C)cc3)c2cc1OC` [Example 862, N-{4-[(6,7-Dimethoxy-4-quinazolinyl)oxy]phenyl}-N-[2-(2-methylphenoxy)ethyl]amine], the IC50 worked out at 933 nM.
With `COc1ccc(OCCNc2ccc(Oc3ccnc4cc(OC)c(OC)cc34)cc2)cc1` [Example 863, N-{4-[(6,7-Dimethoxy-4-quinolyl)oxy]phenyl}-N-[2-(4-methoxyphenoxy)ethyl]amine], the IC50 was determined as 31 nM.
On to `CCc1ccc(OCCNc2ccc(Oc3ccnc4cc(OC)c(OC)cc34)cc2)cc1` [Example 864, N-{4-[(6,7-Dimethoxy-4-quinolyl)oxy]phenyl}-N-[2-(4-ethylphenoxy)ethyl]amine], for which the IC50 worked out at 32 nM.
Turning to `COc1cc2nccc(Oc3ccc(NCCOc4cc(Cl)ccc4Cl)cc3)c2cc1OC` [Example 865, N-[2-(2,5-Dichlorophenoxy)ethyl]-N-{4-[(6,7-dimethoxy-4-quinolyl)oxy]phenyl}amine], the half-maximal inhibitory concentration (IC50) was determined as 121 nM.
The same measure, in the same setting: the same measure for `COc1cc2nccc(Oc3ccc(NCCOc4ccc(F)cc4)cc3)c2cc1OC` [Example 866, N-{4-[(6,7-Dimethoxy-4-quinolyl)oxy]phenyl}-N-[2-(4-fluorophenoxy)ethyl]amine]: 126 nM; for `COc1cc2nccc(Oc3ccc(N(C)CCOc4ccc(F)cc4)cc3)c2cc1OC` [Example 867, N-{4-[(6,7-Dimethoxy-4-quinolyl)oxy]phenyl}-N-[2-(4-fluorophenoxy)ethyl]-N-methylamine]: 191 nM.
Turning to `COc1cc2nccc(Oc3ccc(NCCOc4ccccc4Cl)cc3)c2cc1OC` [Example 868, N-[2-(2-Chlorophenoxy)ethyl]-N-{4-[(6,7-dimethoxy-4-quinolyl)oxy]phenyl}amine], the IC50 is 70 nM.
On the same count and under the same terms, for `COc1cc2nccc(Oc3ccc(NCCOc4ccccc4)cc3)c2cc1OC` [Example 869, N-{4-[(6,7-Dimethoxy-4-quinolyl)oxy]phenyl}-N-(2-phenoxyethyl)amine] the value was 80 nM; for `COc1cc2nccc(Oc3ccc(NCCOc4ccc(C)cc4)cc3)c2cc1OC` [Example 870, N-{4-[(6,7-Dimethoxy-4-quinolyl)oxy]phenyl}-N-[2-(4-methylphenoxy)ethyl]amine], 48 nM; for `COc1cc2nccc(Oc3ccc(NCCOc4cccc(C)c4)cc3)c2cc1OC` [Example 871, N-{4-[(6,7-Dimethoxy-4-quinolyl)oxy]phenyl}-N-[2-(3-methylphenoxy)ethyl]amine], 43 nM.
On to `COc1cc2nccc(Oc3ccc(NCCOc4ccccc4O)cc3)c2cc1OC` [Example 872, 2-(2-{4-[(6,7-Dimethoxy-4-quinolyl)oxy]anilino}ethoxy)phenol], for which the IC50 came out at 32 nM.
Still for that read-out and setting: the same measure for `COc1cc2ncnc(Oc3ccc(NCCOc4ccccc4)cc3)c2cc1OC` [Example 873, N-{4-[(6,7-Dimethoxy-4-quinazolinyl)oxy]phenyl}-N-(2-phenoxyethyl)amine]: 69 nM.
